According to ChEMBL document CHEMBL3217499, “Membrane disrupting antimicrobial peptide dendrimers with multiple amino termini” (Medchemcomm, 2012):
Values after ≈ are worked out from the molar mass of the structure shown. Blank lines part the entries; values can stand above or below the compound they belong to. Where a SMILES comes first, the peptide text is derived from it. Bridges are numbered along the chain shown (N, C = ends). Roman numbers before positions name the chains, in order. Side-chain parts run from the residue outwards. The star is where a group is joined. X3 = CC(=O)N[C@@H](CC(C)C)C(=O)NCCCC[C@H](NC(=O)[C@H](CC(C)C)NC(C)=O)C(=O)*; LeuLys(Leu) = CC(C)C[C@H](N)C(=O)NCCCC[C@H](NC(=O)[C@@H](N)CC(C)C)C(=O)*

Legend:
[1] = test system: Staphylococcus aureus; test: Antibacterial activity against methicillin-resistant Staphylococcus aureus 42080 by broth microdilution assay; type: functional
[2] = test system: Staphylococcus aureus; test: Antibacterial activity against Staphylococcus aureus ATCC 29213 by broth microdilution assay; type: functional
[3] = test system: Enterococcus faecalis; test: Antibacterial activity against Enterococcus faecalis ATCC 29212 by broth microdilution assay; type: functional
[4] = test system: Enterococcus faecalis; test: Antibacterial activity against Enterococcus faecalis Van BE80-8 by broth microdilution assay; type: functional
[5] = test system: Escherichia coli; test: Antibacterial activity against Escherichia coli ATCC 25922 by broth microdilution assay; type: functional
[6] = test system: Pseudomonas aeruginosa; test: Antibacterial activity against Pseudomonas aeruginosa ATCC 27853 by broth microdilution assay; type: functional
[7] = test system: Pseudomonas aeruginosa; test: Antibacterial activity against Pseudomonas aeruginosa PAO1 HS by broth microdilution assay; type: functional
[8] = test system: Pseudomonas aeruginosa; test: Antibacterial activity against Pseudomonas aeruginosa 8S/H by broth microdilution assay; type: functional
[9] = test system: Pseudomonas aeruginosa; test: Antibacterial activity against Pseudomonas aeruginosa K799/WT by broth microdilution assay; type: functional
[10] = test system: Pseudomonas aeruginosa; test: Antibacterial activity against Pseudomonas aeruginosa K799/61 by broth microdilution assay; type: functional
[11] = test system: Bacillus subtilis; test: Antibacterial activity against Bacillus subtilis BR151 after 18 to 24 hrs by broth microdilution assay; type: functional
[12] = test system: Escherichia coli; test: Antibacterial activity against Escherichia coli DH5[alpha] after 18 to 24 hrs by broth microdilution assay; type: functional
[13] = test system: Pseudomonas aeruginosa; test: Antibacterial activity against Pseudomonas aeruginosa PAO1 after 18 to 24 hrs by broth microdilution assay; type: functional
[14] = Hemolytic activity in human RBC after 4 hrs; type: ADME, cell-based; conditions: erythrocyte

Structure (SMILES): CC(=O)N[C@@H](CC(C)C)C(=O)NCCCC[C@H](NC(=O)[C@H](CC(C)C)NC(C)=O)C(=O)N[C@@H](Cc1ccccc1)C(=O)NCCCC[C@H](NC(=O)[C@H](Cc1ccccc1)NC(=O)[C@H](CCCCNC(=O)[C@H](CC(C)C)NC(C)=O)NC(=O)[C@H](CC(C)C)NC(C)=O)C(=O)N1CCC[C@H]1C(=O)NCCCC[C@H](NC(=O)[C@@H]1CCCN1C(=O)[C@H](CCCCNC(=O)[C@H](Cc1ccccc1)NC(=O)[C@H](CCCCNC(=O)[C@H](CC(C)C)NC(C)=O)NC(=O)[C@H](CC(C)C)NC(C)=O)NC(=O)[C@H](Cc1ccccc1)NC(=O)[C@H](CCCCNC(=O)[C@H](CC(C)C)NC(C)=O)NC(=O)[C@H](CC(C)C)NC(C)=O)C(=O)N[C@@H](CCCCN)C(N)=O (I: Ac-LK([Leu-Ac])FK([Phe-X3])PKK-NH2 / II: Ac-LK([Leu-Ac])FK([Phe-X3])P; amide I:6-II:C)
- MIC [1]: > 32 µg/mL
- MIC [2]: > 32 µg/mL
- MIC [3]: > 32 µg/mL
- MIC [4]: > 32 µg/mL
- MIC [5]: > 32 µg/mL
- MIC [6]: > 32 µg/mL
- MIC [7]: > 32 µg/mL
- MIC [8]: > 32 µg/mL
- MIC [9]: > 32 µg/mL
- MIC [10]: > 32 µg/mL

- MIC [11]: 2.5 µg/mL (≈ 0.928 µM)
- MIC [12]: 15 µg/mL (≈ 5.57 µM)
- MIC [13]: 60 µg/mL (≈ 22.3 µM)
Structure (SMILES): CC(C)C[C@@H](N)C(=O)NCCCC[C@H](NC(=O)[C@H](N)CC(C)C)C(=O)N[C@H](CC(C)C)C(=O)NCCCC[C@H](NC(=O)[C@@H](CC(C)C)NC(=O)[C@H](CCCCNC(=O)[C@H](N)CC(C)C)NC(=O)[C@H](N)CC(C)C)C(=O)N[C@H](Cc1ccccc1)C(=O)NCCCC[C@H](NC(=O)[C@@H](Cc1ccccc1)NC(=O)[C@H](CCCCNC(=O)[C@@H](CC(C)C)NC(=O)[C@H](CCCCNC(=O)[C@H](N)CC(C)C)NC(=O)[C@H](N)CC(C)C)NC(=O)[C@@H](CC(C)C)NC(=O)[C@H](CCCCNC(=O)[C@H](N)CC(C)C)NC(=O)[C@H](N)CC(C)C)C(=O)N[C@H](CCCCN)C(N)=O
- MHC [14]: > 10000 µg/mL

Structure (SMILES): CC(=O)N[C@@H](CC(C)C)C(=O)NCCCC[C@H](NC(=O)[C@H](CC(C)C)NC(C)=O)C(=O)N[C@@H](CC(C)C)C(=O)NCCCC[C@H](NC(=O)[C@H](CC(C)C)NC(=O)[C@H](CCCCNC(=O)[C@H](CC(C)C)NC(C)=O)NC(=O)[C@H](CC(C)C)NC(C)=O)C(=O)N[C@@H](Cc1ccccc1)C(=O)NCCCC[C@H](NC(=O)[C@H](Cc1ccccc1)NC(=O)[C@H](CCCCNC(=O)[C@H](CC(C)C)NC(=O)[C@H](CCCCNC(=O)[C@H](CC(C)C)NC(C)=O)NC(=O)[C@H](CC(C)C)NC(C)=O)NC(=O)[C@H](CC(C)C)NC(=O)[C@H](CCCCNC(=O)[C@H](CC(C)C)NC(C)=O)NC(=O)[C@H](CC(C)C)NC(C)=O)C(=O)N[C@@H](CCCCN)C(N)=O (I: Ac-LK([Leu-Ac])LK([Leu-X3])FKK-NH2 / II: Ac-LK([Leu-Ac])LK([Leu-X3])F; amide I:6-II:C)
- MIC [1]: > 32 µg/mL
- MIC [2]: > 32 µg/mL
- MIC [3]: > 32 µg/mL
- MIC [4]: > 32 µg/mL
- MIC [5]: > 32 µg/mL
- MIC [6]: > 32 µg/mL
- MIC [7]: > 32 µg/mL
- MIC [8]: > 32 µg/mL
- MIC [9]: > 32 µg/mL
- MIC [10]: > 32 µg/mL

- MIC [11]: 67 µg/mL (≈ 26.5 µM)
- MIC [12]: > 100 µg/mL
- MIC [13]: > 100 µg/mL
Structure (SMILES): CC(C)C[C@H](N)C(=O)NCCCC[C@H](NC(=O)[C@@H](N)CC(C)C)C(=O)N[C@@H](C)C(=O)NCCCC[C@H](NC(=O)[C@H](C)NC(=O)[C@H](CCCCNC(=O)[C@@H](N)CC(C)C)NC(=O)[C@@H](N)CC(C)C)C(=O)N[C@@H](Cc1ccccc1)C(=O)NCCCC[C@H](NC(=O)[C@H](Cc1ccccc1)NC(=O)[C@H](CCCCNC(=O)[C@H](C)NC(=O)[C@H](CCCCNC(=O)[C@@H](N)CC(C)C)NC(=O)[C@@H](N)CC(C)C)NC(=O)[C@H](C)NC(=O)[C@H](CCCCNC(=O)[C@@H](N)CC(C)C)NC(=O)[C@@H](N)CC(C)C)C(=O)N[C@@H](CCCCN)C(N)=O (I: H-LK(Leu)AK([Ala-LeuLys(Leu)])FKK-NH2 / II: H-LK(Leu)AK([Ala-LeuLys(Leu)])F; amide I:6-II:C)
- MHC [14]: > 2000 µg/mL

Structure (SMILES): CC(C)C[C@H](N)C(=O)NCCCC[C@H](NC(=O)[C@@H](N)CC(C)C)C(=O)N[C@@H](CCC(N)=O)C(=O)NCCCC[C@H](NC(=O)[C@H](CCC(N)=O)NC(=O)[C@H](CCCCNC(=O)[C@@H](N)CC(C)C)NC(=O)[C@@H](N)CC(C)C)C(=O)N[C@@H](Cc1ccccc1)C(=O)NCCCC[C@H](NC(=O)[C@H](Cc1ccccc1)NC(=O)[C@H](CCCCNC(=O)[C@H](CCC(N)=O)NC(=O)[C@H](CCCCNC(=O)[C@@H](N)CC(C)C)NC(=O)[C@@H](N)CC(C)C)NC(=O)[C@H](CCC(N)=O)NC(=O)[C@H](CCCCNC(=O)[C@@H](N)CC(C)C)NC(=O)[C@@H](N)CC(C)C)C(=O)N[C@@H](CCCCN)C(N)=O (I: H-LK(Leu)QK([Gln-LeuLys(Leu)])FKK-NH2 / II: H-LK(Leu)QK([Gln-LeuLys(Leu)])F; amide I:6-II:C)
- MIC [11]: > 100 µg/mL
- MIC [12]: > 100 µg/mL
- MIC [13]: > 100 µg/mL
- MHC [14]: 250 µg/mL
- MIC [1]: > 32 µg/mL
- MIC [2]: > 32 µg/mL
- MIC [3]: > 32 µg/mL
- MIC [4]: > 32 µg/mL
- MIC [5]: > 32 µg/mL
- MIC [6]: > 32 µg/mL
- MIC [7]: > 32 µg/mL
- MIC [8]: > 32 µg/mL
- MIC [9]: > 32 µg/mL
- MIC [10]: > 32 µg/mL
